Data: US11154529B2, “Phosphaplatin liquid formulations” (Phosplatin Therapeutics Inc., priority 2016, dated 2021)

Tests used:
[1] = Hydrolytic degradation of (R,R)-pyrodach-2 in aqueous solution; type: physicochemical; conditions: acidic aqueous conditions
From the text: Thus, simple dissolution of (R,R)-pyrodach-2 affords an acidic solution. […] At higher pHs, where the acid groups of (R,R)-pyrodach-2 are ionized, the solubility of (R,R)-pyrodach-2 increases. In addition, deprotonation of the acid groups in (R,R)-pyrodach-2 dramatically reduces the rate of hydrolytic degradation. The two pKa values of (R,R)-pyrodach-2 indicate that an aqueous solution of (R,R)-pyrodach-2 in the physiological pH range of 7.0-7.5 will have no buffering capacity. Thus, controlling the pH of an aqueous solution in the physiological pH range, much less the accurate and reproducible preparation of aqueous (R,R)-pyrodach-2 solutions in this pH range by pH adjustment of an aqueous solution of (R,R)-pyrodach-2 with hydroxide base, is extremely difficult. […] This presents a unique challenge as the pyrophosphate ligand in (R,R)-pyrodach-2 is kinetically labile in solution and can potentially undergo reaction with anions present in many buffers. Table 1 summarizes the decrease in potency measured by HPLC of aqueous 1 mg/mL (R,R)-pyrodach-2 solutions in a variety of buffers at ambient temperature.

[2] = Ready-to-use formulation stability at 2-8° C., 5 mg/mL (R,R)-pyrodach-2 in 10 mM Bicarbonate Buffer at pH 8.6, 10 mL vials; type: physicochemical

O=P1(O)OP(=O)(O)[O][Pt]2([NH][C@@H]3CCCC[C@H]3[NH]2)[O]1 (stereo partly drawn) [(R,R)-pyrodach-2, (R,R)-trans-1,2-cyclohexanediamine-(dihydrogenpyrophosphato)platinum(II)]
hydrolytic degradation [1]: rapidly undergoes hydrolytic degradation
Potency (Assay) ([2]; 1 month): 99.1%
Purity (% Area) ([2]; 1 month): 97.85%
Unknown Impurities RRT~0.29 ([2]; 1 month): 0.14%
Unknown Impurities RRT~0.35 ([2]; 1 month): ND (ND = Not Detected, or <0.05%)
Unknown Impurities RRT~0.41 ([2]; 1 month): 0.05%
Unknown Impurities RRT~0.49 ([2]; 1 month): 0.55%
Unknown Impurities RRT~0.59 ([2]; 1 month): 0.08%
Unknown Impurities RRT~0.73 ([2]; 1 month): 1.14%
Unknown Impurities RRT~1.51 ([2]; 1 month): ND (ND = Not Detected, or <0.05%)
Unknown Impurities RRT~2.82 ([2]; 1 month): ND (ND = Not Detected, or <0.05%)
Unknown Impurities RRT~3.44 ([2]; 1 month): ND (ND = Not Detected, or <0.05%)
pH ([2]; 1 month): 8.73
Potency (Assay) ([2]; 1 week): 101.9%
Purity (% Area) ([2]; 1 week): 98.02%
Unknown Impurities RRT~0.29 ([2]; 1 week): 0.10%
Unknown Impurities RRT~0.35 ([2]; 1 week): ND (ND = Not Detected, or <0.05%)
Unknown Impurities RRT~0.41 ([2]; 1 week): ND (ND = Not Detected, or <0.05%)
Unknown Impurities RRT~0.49 ([2]; 1 week): 0.60%
Unknown Impurities RRT~0.59 ([2]; 1 week): ND (ND = Not Detected, or <0.05%)
Unknown Impurities RRT~0.73 ([2]; 1 week): 1.11%
Unknown Impurities RRT~1.51 ([2]; 1 week): ND (ND = Not Detected, or <0.05%)
Unknown Impurities RRT~2.82 ([2]; 1 week): ND (ND = Not Detected, or <0.05%)
Unknown Impurities RRT~3.44 ([2]; 1 week): ND (ND = Not Detected, or <0.05%)
pH ([2]; 1 week): 8.57
Potency (Assay) ([2]; 2 month): 102.4%
Purity (% Area) ([2]; 2 month): 97.58%
Unknown Impurities RRT~0.29 ([2]; 2 month): 0.21%
Unknown Impurities RRT~0.35 ([2]; 2 month): ND (ND = Not Detected, or <0.05%)
Unknown Impurities RRT~0.41 ([2]; 2 month): 0.11%
Unknown Impurities RRT~0.49 ([2]; 2 month): 0.62%
Unknown Impurities RRT~0.59 ([2]; 2 month): 0.15%
Unknown Impurities RRT~0.73 ([2]; 2 month): 1.03%
Unknown Impurities RRT~1.51 ([2]; 2 month): ND (ND = Not Detected, or <0.05%)
Unknown Impurities RRT~2.82 ([2]; 2 month): ND (ND = Not Detected, or <0.05%)
Unknown Impurities RRT~3.44 ([2]; 2 month): 0.06%
pH ([2]; 2 month): 8.76
Potency (Assay) ([2]; 2 week): 100.5%
Purity (% Area) ([2]; 2 week): 97.99%
Unknown Impurities RRT~0.29 ([2]; 2 week): 0.12%
Unknown Impurities RRT~0.35 ([2]; 2 week): ND (ND = Not Detected, or <0.05%)
Unknown Impurities RRT~0.41 ([2]; 2 week): ND (ND = Not Detected, or <0.05%)
Unknown Impurities RRT~0.49 ([2]; 2 week): 0.63%
Unknown Impurities RRT~0.59 ([2]; 2 week): 0.06%
Unknown Impurities RRT~0.73 ([2]; 2 week): 1.14%
Unknown Impurities RRT~1.51 ([2]; 2 week): ND (ND = Not Detected, or <0.05%)
Unknown Impurities RRT~2.82 ([2]; 2 week): ND (ND = Not Detected, or <0.05%)
Unknown Impurities RRT~3.44 ([2]; 2 week): ND (ND = Not Detected, or <0.05%)
pH ([2]; 2 week): 8.65
Potency (Assay) ([2]; 3 month): 102.3%
Purity (% Area) ([2]; 3 month): 97.76%
Unknown Impurities RRT~0.29 ([2]; 3 month): 0.29%
Unknown Impurities RRT~0.35 ([2]; 3 month): ND (ND = Not Detected, or <0.05%)
Unknown Impurities RRT~0.41 ([2]; 3 month): 0.13%
Unknown Impurities RRT~0.49 ([2]; 3 month): 0.53%
Unknown Impurities RRT~0.59 ([2]; 3 month): 0.15%
Unknown Impurities RRT~0.73 ([2]; 3 month): 0.89%
Unknown Impurities RRT~1.51 ([2]; 3 month): 0.06%
Unknown Impurities RRT~2.82 ([2]; 3 month): 0.05%
Unknown Impurities RRT~3.44 ([2]; 3 month): ND (ND = Not Detected, or <0.05%)
pH ([2]; 3 month): 8.95
Potency (Assay) ([2]; 3 week): 100.0%
Purity (% Area) ([2]; 3 week): 97.91%
Unknown Impurities RRT~0.29 ([2]; 3 week): 0.14%
Unknown Impurities RRT~0.35 ([2]; 3 week): ND (ND = Not Detected, or <0.05%)
Unknown Impurities RRT~0.41 ([2]; 3 week): ND (ND = Not Detected, or <0.05%)
Unknown Impurities RRT~0.49 ([2]; 3 week): 0.56%
Unknown Impurities RRT~0.59 ([2]; 3 week): 0.07%
Unknown Impurities RRT~0.73 ([2]; 3 week): 1.11%
Unknown Impurities RRT~1.51 ([2]; 3 week): ND (ND = Not Detected, or <0.05%)
Unknown Impurities RRT~2.82 ([2]; 3 week): ND (ND = Not Detected, or <0.05%)
Unknown Impurities RRT~3.44 ([2]; 3 week): ND (ND = Not Detected, or <0.05%)
pH ([2]; 3 week): 8.67
Potency (Assay) ([2]; 4 month): 103.5%
Purity (% Area) ([2]; 4 month): 98.07%
Unknown Impurities RRT~0.29 ([2]; 4 month): 0.15%
Unknown Impurities RRT~0.35 ([2]; 4 month): ND (ND = Not Detected, or <0.05%)
Unknown Impurities RRT~0.41 ([2]; 4 month): 0.16%
Unknown Impurities RRT~0.49 ([2]; 4 month): 0.68%
Unknown Impurities RRT~0.59 ([2]; 4 month): 0.09%
Unknown Impurities RRT~0.73 ([2]; 4 month): 0.72%
Unknown Impurities RRT~1.51 ([2]; 4 month): 0.05%
Unknown Impurities RRT~2.82 ([2]; 4 month): 0.05%
Unknown Impurities RRT~3.44 ([2]; 4 month): ND (ND = Not Detected, or <0.05%)
pH ([2]; 4 month): 8.83
Potency (Assay) ([2]; 6 month): 100.4%
Purity (% Area) ([2]; 6 month): 97.56%
Unknown Impurities RRT~0.29 ([2]; 6 month): 0.23%
Unknown Impurities RRT~0.35 ([2]; 6 month): ND (ND = Not Detected, or <0.05%)
Unknown Impurities RRT~0.41 ([2]; 6 month): 0.23%
Unknown Impurities RRT~0.49 ([2]; 6 month): 0.65%
Unknown Impurities RRT~0.59 ([2]; 6 month): 0.21%
Unknown Impurities RRT~0.73 ([2]; 6 month): 0.90%
Unknown Impurities RRT~1.51 ([2]; 6 month): ND (ND = Not Detected, or <0.05%)
Unknown Impurities RRT~2.82 ([2]; 6 month): ND (ND = Not Detected, or <0.05%)
Unknown Impurities RRT~3.44 ([2]; 6 month): 0.09%
pH ([2]; 6 month): 8.84
Potency (Assay) ([2]; 9 month): 102.2%
Purity (% Area) ([2]; 9 month): 97.73%
Unknown Impurities RRT~0.29 ([2]; 9 month): 0.15%
Unknown Impurities RRT~0.35 ([2]; 9 month): ND (ND = Not Detected, or <0.05%)
Unknown Impurities RRT~0.41 ([2]; 9 month): 0.33%
Unknown Impurities RRT~0.49 ([2]; 9 month): 0.58%
Unknown Impurities RRT~0.59 ([2]; 9 month): 0.24%
Unknown Impurities RRT~0.73 ([2]; 9 month): 0.43%
Unknown Impurities RRT~1.51 ([2]; 9 month): 0.05%
Unknown Impurities RRT~2.82 ([2]; 9 month): 0.13%
Unknown Impurities RRT~3.44 ([2]; 9 month): 0.16%
pH ([2]; 9 month): 9.07
Potency (Assay) ([2]; 12 month): 100.3%
Purity (% Area) ([2]; 12 month): 96.64%
Unknown Impurities RRT~0.29 ([2]; 12 month): 0.13%
Unknown Impurities RRT~0.35 ([2]; 12 month): 0.05%
Unknown Impurities RRT~0.41 ([2]; 12 month): 0.47%
Unknown Impurities RRT~0.49 ([2]; 12 month): 0.64%
Unknown Impurities RRT~0.59 ([2]; 12 month): 0.27%
Unknown Impurities RRT~0.73 ([2]; 12 month): 0.98%
Unknown Impurities RRT~1.51 ([2]; 12 month): ND (ND = Not Detected, or <0.05%)
Unknown Impurities RRT~2.82 ([2]; 12 month): 0.19%
Unknown Impurities RRT~3.44 ([2]; 12 month): 0.28%
pH ([2]; 12 month): 8.97
Potency (Assay) ([2]; Initial): 100.3%
Purity (% Area) ([2]; Initial): 98.04%
Unknown Impurities RRT~0.29 ([2]; Initial): 0.11%
Unknown Impurities RRT~0.35 ([2]; Initial): ND (ND = Not Detected, or <0.05%)
Unknown Impurities RRT~0.41 ([2]; Initial): ND (ND = Not Detected, or <0.05%)
Unknown Impurities RRT~0.49 ([2]; Initial): 0.62%
Unknown Impurities RRT~0.59 ([2]; Initial): ND (ND = Not Detected, or <0.05%)
Unknown Impurities RRT~0.73 ([2]; Initial): 1.05%
Unknown Impurities RRT~1.51 ([2]; Initial): ND (ND = Not Detected, or <0.05%)
Unknown Impurities RRT~2.82 ([2]; Initial): ND (ND = Not Detected, or <0.05%)
Unknown Impurities RRT~3.44 ([2]; Initial): ND (ND = Not Detected, or <0.05%)
pH ([2]; Initial): 8.60
